# Results from the NIST ThermoML archive (doi:10.1016/j.jct.2014.03.001).
# ± gives the expanded uncertainty stated by the source.
# Experiments:
# [1] = mn = molality of the nth substance listed, in mol/kg; details: 84.51 kPa, Liquid; for speed of sound: Frequency=3 MHz, Sing-around technique in a fixed-path interferometer; for mass density: Vibrating tube method
# [2] = 313.15 K; 84.51 kPa; Liquid; Frequency=3 MHz; Sing-around technique in a fixed-path interferometer
smiles,measurement,setting,value
Cl.N [ammonium chloride (NH4Cl)] + O,speed of sound,"[1]; 288.15 K, m1 = 0.035",1468.2 ± 1.4 m/s
same,mass density,"[1]; 288.15 K, m1 = 0.035",999.719 ± 0.17 kg/m3
same,speed of sound,"[1]; 293.15 K, m1 = 0.035",1484.2 ± 1.4 m/s
same,mass density,"[1]; 293.15 K, m1 = 0.035",998.814 ± 0.17 kg/m3
same,speed of sound,"[1]; 298.15 K, m1 = 0.035",1498.4 ± 1.4 m/s
same,mass density,"[1]; 298.15 K, m1 = 0.035",997.645 ± 0.17 kg/m3
same,speed of sound,"[1]; 303.15 K, m1 = 0.035",1510.7 ± 1.4 m/s
same,mass density,"[1]; 303.15 K, m1 = 0.035",996.243 ± 0.17 kg/m3
same,speed of sound,"[1]; 308.15 K, m1 = 0.035",1521.3 ± 1.4 m/s
same,mass density,"[1]; 308.15 K, m1 = 0.035",994.624 ± 0.18 kg/m3
same,speed of sound,"[1]; 313.15 K, m1 = 0.035",1530.4 ± 1.4 m/s
same,mass density,"[1]; 313.15 K, m1 = 0.035",992.807 ± 0.18 kg/m3
[Cl][Fe]([Cl])[Cl] [ferric chloride] + O,speed of sound,"[1]; 288.15 K, m1 = 0.035",1470.9 ± 1.5 m/s
same,mass density,"[1]; 288.15 K, m1 = 0.035",1003.96 ± 0.2 kg/m3
same,speed of sound,"[1]; 293.15 K, m1 = 0.035",1486.8 ± 1.5 m/s
same,mass density,"[1]; 293.15 K, m1 = 0.035",1003.05 ± 0.2 kg/m3
same,speed of sound,"[1]; 298.15 K, m1 = 0.035",1500.8 ± 1.5 m/s
same,mass density,"[1]; 298.15 K, m1 = 0.035",1001.87 ± 0.2 kg/m3
same,speed of sound,"[1]; 303.15 K, m1 = 0.035",1513 ± 1.5 m/s
same,mass density,"[1]; 303.15 K, m1 = 0.035",1000.46 ± 0.2 kg/m3
same,speed of sound,"[1]; 308.15 K, m1 = 0.035",1523.5 ± 1.5 m/s
same,mass density,"[1]; 308.15 K, m1 = 0.035",998.83 ± 0.2 kg/m3
same,speed of sound,"[1]; 313.15 K, m1 = 0.035",1532.4 ± 1.5 m/s
same,mass density,"[1]; 313.15 K, m1 = 0.035",997.003 ± 0.2 kg/m3
[Cl-].[Cl-].[Mg+2] [magnesium chloride] + O,speed of sound,"[1]; 288.15 K, m1 = 0.035",1471.1 ± 1.6 m/s
same,mass density,"[1]; 288.15 K, m1 = 0.035",1002.4 ± 0.26 kg/m3
same,speed of sound,"[1]; 293.15 K, m1 = 0.035",1487.1 ± 1.6 m/s
same,mass density,"[1]; 293.15 K, m1 = 0.035",1001.48 ± 0.26 kg/m3
same,speed of sound,"[1]; 298.15 K, m1 = 0.035",1501.3 ± 1.6 m/s
same,mass density,"[1]; 298.15 K, m1 = 0.035",1000.31 ± 0.26 kg/m3
same,speed of sound,"[1]; 303.15 K, m1 = 0.035",1513.5 ± 1.6 m/s
same,mass density,"[1]; 303.15 K, m1 = 0.035",998.899 ± 0.26 kg/m3
same,speed of sound,"[1]; 308.15 K, m1 = 0.035",1524 ± 1.6 m/s
same,mass density,"[1]; 308.15 K, m1 = 0.035",997.276 ± 0.26 kg/m3
same,mass density,"[1]; 313.15 K, m1 = 0.035",995.455 ± 0.26 kg/m3
[Cl-].[K+] [potassium chloride] + O,speed of sound,"[1]; 288.15 K, m1 = 0.035",1468.5 ± 1.5 m/s
same,mass density,"[1]; 288.15 K, m1 = 0.035",1000.79 ± 0.2 kg/m3
same,speed of sound,"[1]; 293.15 K, m1 = 0.035",1484.5 ± 1.5 m/s
same,mass density,"[1]; 293.15 K, m1 = 0.035",999.873 ± 0.2 kg/m3
same,speed of sound,"[1]; 298.15 K, m1 = 0.035",1498.7 ± 1.5 m/s
same,mass density,"[1]; 298.15 K, m1 = 0.035",998.698 ± 0.2 kg/m3
same,speed of sound,"[1]; 303.15 K, m1 = 0.035",1510.9 ± 1.5 m/s
same,mass density,"[1]; 303.15 K, m1 = 0.035",997.288 ± 0.2 kg/m3
same,speed of sound,"[1]; 308.15 K, m1 = 0.035",1521.5 ± 1.5 m/s
same,mass density,"[1]; 308.15 K, m1 = 0.035",995.661 ± 0.2 kg/m3
same,speed of sound,"[1]; 313.15 K, m1 = 0.035",1530.5 ± 1.5 m/s
same,mass density,"[1]; 313.15 K, m1 = 0.035",993.836 ± 0.2 kg/m3
O=C([O-])[O-].[Na+].[Na+] [sodium carbonate] + O,speed of sound,"[1]; 288.15 K, m1 = 0.035",1473.1 ± 1.4 m/s
same,mass density,"[1]; 288.15 K, m1 = 0.035",1003.04 ± 0.17 kg/m3
same,speed of sound,"[1]; 293.15 K, m1 = 0.035",1489.1 ± 1.4 m/s
same,mass density,"[1]; 293.15 K, m1 = 0.035",1002.09 ± 0.17 kg/m3
same,speed of sound,"[1]; 298.15 K, m1 = 0.035",1503 ± 1.4 m/s
same,mass density,"[1]; 298.15 K, m1 = 0.035",1000.88 ± 0.17 kg/m3
same,speed of sound,"[1]; 303.15 K, m1 = 0.035",1515.2 ± 1.4 m/s
same,mass density,"[1]; 303.15 K, m1 = 0.035",999.439 ± 0.17 kg/m3
same,speed of sound,"[1]; 308.15 K, m1 = 0.035",1525.7 ± 1.4 m/s
same,mass density,"[1]; 308.15 K, m1 = 0.035",997.791 ± 0.17 kg/m3
same,speed of sound,"[1]; 313.15 K, m1 = 0.035",1534.6 ± 1.4 m/s
same,mass density,"[1]; 313.15 K, m1 = 0.035",995.95 ± 0.17 kg/m3
[Cl-].[Na+] [sodium chloride] + O,speed of sound,"[1]; 288.15 K, m1 = 0.035",1468.8 ± 1.5 m/s
same,mass density,"[1]; 288.15 K, m1 = 0.035",1000.55 ± 0.2 kg/m3
same,speed of sound,"[1]; 293.15 K, m1 = 0.035",1484.9 ± 1.5 m/s
same,mass density,"[1]; 293.15 K, m1 = 0.035",999.636 ± 0.2 kg/m3
same,mass density,"[1]; 298.15 K, m1 = 0.035",998.457 ± 0.2 kg/m3
same,speed of sound,"[1]; 303.15 K, m1 = 0.035",1511.3 ± 1.5 m/s
same,mass density,"[1]; 303.15 K, m1 = 0.035",997.046 ± 0.2 kg/m3
same,speed of sound,"[1]; 308.15 K, m1 = 0.035",1521.9 ± 1.5 m/s
same,mass density,"[1]; 308.15 K, m1 = 0.035",995.419 ± 0.2 kg/m3
same,speed of sound,"[1]; 313.15 K, m1 = 0.035",1530.9 ± 1.5 m/s
same,mass density,"[1]; 313.15 K, m1 = 0.035",993.592 ± 0.2 kg/m3
O=[N+]([O-])[O-].[Na+] [sodium nitrate] + O,speed of sound,"[1]; 288.15 K, m1 = 0.035",1468.2 ± 1.5 m/s
same,mass density,"[1]; 288.15 K, m1 = 0.035",1001.14 ± 0.2 kg/m3
same,speed of sound,"[1]; 293.15 K, m1 = 0.035",1484.2 ± 1.5 m/s
same,mass density,"[1]; 293.15 K, m1 = 0.035",1000.21 ± 0.2 kg/m3
same,speed of sound,"[1]; 298.15 K, m1 = 0.035",1498.3 ± 1.5 m/s
same,mass density,"[1]; 298.15 K, m1 = 0.035",999.017 ± 0.2 kg/m3
same,speed of sound,"[1]; 303.15 K, m1 = 0.035",1510.5 ± 1.5 m/s
same,mass density,"[1]; 303.15 K, m1 = 0.035",997.592 ± 0.2 kg/m3
same,speed of sound,"[1]; 308.15 K, m1 = 0.035",1521.1 ± 1.5 m/s
same,mass density,"[1]; 308.15 K, m1 = 0.035",995.954 ± 0.2 kg/m3
same,speed of sound,"[1]; 313.15 K, m1 = 0.035",1530.1 ± 1.5 m/s
same,mass density,"[1]; 313.15 K, m1 = 0.035",994.12 ± 0.2 kg/m3
O=S(=O)([O-])[O-].[Na+].[Na+] [sodium sulfate] + O,speed of sound,"[1]; 288.15 K, m1 = 0.035",1472.6 ± 1.6 m/s
same,mass density,"[1]; 288.15 K, m1 = 0.035",1003.68 ± 0.26 kg/m3
same,speed of sound,"[1]; 293.15 K, m1 = 0.035",1488.6 ± 1.6 m/s
same,mass density,"[1]; 293.15 K, m1 = 0.035",1002.73 ± 0.26 kg/m3
same,speed of sound,"[1]; 298.15 K, m1 = 0.035",1502.6 ± 1.6 m/s
same,mass density,"[1]; 298.15 K, m1 = 0.035",1001.52 ± 0.26 kg/m3
same,speed of sound,"[1]; 303.15 K, m1 = 0.035",1514.8 ± 1.6 m/s
same,mass density,"[1]; 303.15 K, m1 = 0.035",1000.09 ± 0.26 kg/m3
same,speed of sound,"[1]; 308.15 K, m1 = 0.035",1525.3 ± 1.6 m/s
same,mass density,"[1]; 308.15 K, m1 = 0.035",998.436 ± 0.26 kg/m3
same,speed of sound,"[1]; 313.15 K, m1 = 0.035",1534.2 ± 1.6 m/s
same,mass density,"[1]; 313.15 K, m1 = 0.035",996.589 ± 0.26 kg/m3
C[N+](C)(C)C.[Cl-] [tetramethylammonium chloride] + O,speed of sound,"[1]; 288.15 K, m1 = 0.035",1470.2 ± 1.8 m/s
same,mass density,"[1]; 288.15 K, m1 = 0.035",999.201 ± 0.42 kg/m3
same,speed of sound,"[1]; 293.15 K, m1 = 0.035",1486.1 ± 1.9 m/s
same,mass density,"[1]; 293.15 K, m1 = 0.035",998.29 ± 0.42 kg/m3
same,speed of sound,"[1]; 298.15 K, m1 = 0.035",1500.1 ± 1.9 m/s
same,mass density,"[1]; 298.15 K, m1 = 0.035",997.12 ± 0.42 kg/m3
same,speed of sound,"[1]; 303.15 K, m1 = 0.035",1512.3 ± 1.9 m/s
same,mass density,"[1]; 303.15 K, m1 = 0.035",995.716 ± 0.42 kg/m3
same,speed of sound,"[1]; 308.15 K, m1 = 0.035",1522.8 ± 1.9 m/s
same,mass density,"[1]; 308.15 K, m1 = 0.035",994.093 ± 0.42 kg/m3
same,speed of sound,"[1]; 313.15 K, m1 = 0.035",1531.7 ± 1.9 m/s
same,mass density,"[1]; 313.15 K, m1 = 0.035",992.272 ± 0.42 kg/m3
O=C([O-])CC(O)(CC(=O)[O-])C(=O)[O-].[Na+].[Na+].[Na+] [trisodium citrate] + O,speed of sound,"[1]; 288.15 K, m1 = 0.035",1474.7 ± 1.6 m/s
same,mass density,"[1]; 288.15 K, m1 = 0.035",1005.71 ± 0.26 kg/m3
same,speed of sound,"[1]; 293.15 K, m1 = 0.035",1490.6 ± 1.6 m/s
same,mass density,"[1]; 293.15 K, m1 = 0.035",1004.75 ± 0.26 kg/m3
same,speed of sound,"[1]; 298.15 K, m1 = 0.035",1504.5 ± 1.6 m/s
same,mass density,"[1]; 298.15 K, m1 = 0.035",1003.53 ± 0.26 kg/m3
same,speed of sound,"[1]; 303.15 K, m1 = 0.035",1516.7 ± 1.6 m/s
same,mass density,"[1]; 303.15 K, m1 = 0.035",1002.08 ± 0.26 kg/m3
same,speed of sound,"[1]; 308.15 K, m1 = 0.035",1527.1 ± 1.6 m/s
same,mass density,"[1]; 308.15 K, m1 = 0.035",1000.42 ± 0.26 kg/m3
same,speed of sound,"[1]; 313.15 K, m1 = 0.035",1536 ± 1.6 m/s
same,mass density,"[1]; 313.15 K, m1 = 0.035",998.572 ± 0.26 kg/m3
O [water],speed of sound,[2],1529.2 ± 1.2 m/s
O [water] + CCCCCCCCCCCCn1cc[n+](C)c1.[Br-],speed of sound,"[1]; 313.15 K, m2 = 0",1529.2 ± 1.2 m/s
